Experimental data taken from patent publication US11926599B1, “1-(2-chlorobenzylideneamino)-5,5-diphenylimidazolidine-2,4-dione as an antimicrobial compound” (KING FAISAL UNIVERSITY, priority 2023, dated 2024).

What was measured:
Type in all cases: cell-based
[1] = test system: Aspergillus flavus; test: Agar plate disc-diffusion, antifungal inhibition zone; conditions: Sabouraud's dextrose agar, 72 hours, DMSO zone subtracted
Experimental: (§1) The agar plate disc-diffusion method was applied. […] The discs were then placed onto the surface of agar plates (nutrient agar for bacteria and Sabouraud's dextrose agar for fungi) seeded with the test organism. Each plate contained 15 mL of the agar medium, previously seeded with 0.2 mL of the broth culture of each organism pregrown for 18 hours. The plates were incubated at 37° C. for 48 hours, and 72 hours for fungi. The inhibition zones was measured in millimeter. Discs impregnated with DMSO were used as a control, and its inhibition zone was subtracted from the tested compound actual inhibition zone.
(§2) The results of the antimicrobial testing can be observed in Tables 1 and 2, below, with ciprofloxacin serving as a reference.

[2] = test system: Chrysosporium keratinophilum; test: as above; conditions: Sabouraud's dextrose agar, 72 hours, DMSO zone subtracted
Experimental: as §1, §2

[3] = test system: Staphylococcus aureus; test: Agar plate disc-diffusion, antibacterial inhibition zone; conditions: nutrient agar, 37° C., 48 hours, DMSO zone subtracted
Experimental: as §1, §2

[4] = test system: Pseudomonas aeruginosa; test: as above; conditions: nutrient agar, 37° C., 48 hours, DMSO zone subtracted
Experimental: as §1, §2

[5] = test system: Escherichia coli; test: as above; conditions: nutrient agar, 37° C., 48 hours, DMSO zone subtracted
Experimental: as §1, §2

[6] = test system: Bacillus cereus; test: as above; conditions: nutrient agar, 37° C., 48 hours, DMSO zone subtracted
Experimental: as §1, §2

[7] = A = concentration of comp. = 10,000 μL
[8] = B = concentration of comp. = 30.000 μL
[9] = C = concentration of comp. = 50,000 μL

O=C1NC(=O)C(c2ccccc2)(c2ccccc2)N1/N=C/c1ccccc1Cl [Compound 4, 1-(2-chlorobenzylideneamino)-5,5-diphenylimidazolidine-2,4-dione]
inhibition zone, Aspergillus flavus, A [1, 7]: 25 millimeter | inhibition zone, Aspergillus flavus, B [1, 8]: 24 millimeter | inhibition zone, Aspergillus flavus, C [1, 9]: 36 millimeter | inhibition zone, Chrysosporium keratinophilum, A [2, 7]: 27 millimeter | inhibition zone, Chrysosporium keratinophilum, B [2, 8]: 29 millimeter | inhibition zone, Chrysosporium keratinophilum, C [2, 9]: 50 millimeter | inhibition zone, Staphylococcus aureus, A [3, 7]: 10 millimeter | inhibition zone, Staphylococcus aureus, B [3, 8]: 17 millimeter | inhibition zone, Staphylococcus aureus, C [3, 9]: 20 millimeter | inhibition zone, Pseudomonas aeruginosa, A [4, 7]: 20 millimeter | inhibition zone, Pseudomonas aeruginosa, B [4, 8]: 24 millimeter | inhibition zone, Pseudomonas aeruginosa, C [4, 9]: 34 millimeter | inhibition zone, Escherichia coli, A [5, 7]: 27 millimeter | inhibition zone, Escherichia coli, B [5, 8]: 32 millimeter | inhibition zone, Escherichia coli, C [5, 9]: 51 millimeter | inhibition zone, Bacillus Cereus, A [6, 7]: 26 millimeter | inhibition zone, Bacillus Cereus, B [6, 8]: 29 millimeter | inhibition zone, Bacillus Cereus, C [6, 9]: 41 millimeter
